Structures are written as SMILES.

Experiment [1] concerns the target T1, human orexin-2 receptor (Homo sapiens, UniProt O43614).
T1 construct: expressed in transfected cells; host or cells: CHO (Chinese hamster ovary) cells, grown under G418 selection
T1 sequence (O43614 1-444): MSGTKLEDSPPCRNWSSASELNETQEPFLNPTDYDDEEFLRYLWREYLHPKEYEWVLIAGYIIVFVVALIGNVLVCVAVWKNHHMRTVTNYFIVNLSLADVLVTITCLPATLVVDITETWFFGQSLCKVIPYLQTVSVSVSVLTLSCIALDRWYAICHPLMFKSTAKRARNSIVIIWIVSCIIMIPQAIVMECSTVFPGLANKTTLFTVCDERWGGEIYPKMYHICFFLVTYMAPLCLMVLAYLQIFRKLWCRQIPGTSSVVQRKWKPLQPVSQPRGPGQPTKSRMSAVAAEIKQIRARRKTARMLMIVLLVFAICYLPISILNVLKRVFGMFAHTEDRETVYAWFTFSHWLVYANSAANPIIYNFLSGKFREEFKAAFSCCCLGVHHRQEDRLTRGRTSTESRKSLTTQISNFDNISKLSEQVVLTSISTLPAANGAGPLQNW
The experiment can be described thus: Intracellular calcium measurements (FLIPR), orexin receptor antagonistic activity, OX2. It is filed as cell-based. Conditions: CHO cells expressing human orexin-2 receptor, 10 nM orexin-A as agonist. As to the method:
(§1) The orexin receptor antagonistic activity of the compounds of formula (I) is determined in accordance with the following experimental method.
(§2) Intracellular Calcium Measurements:
(§3) Chinese hamster ovary (CHO) cells expressing the human orexin-1 receptor and the human orexin-2 receptor, respectively, are grown in culture medium (Ham F-12 with L-Glutamine) containing 300 μg/ml G418, 100 U/ml penicillin, 100 μg/ml streptomycin and 10% inactivated fetal calf serum (FCS). The cells are seeded at 80,000 cells/well into 96-well black clear bottom sterile plates (Costar) which have been precoated with 1% gelatine in Hanks' Balanced Salt Solution (HBSS). All reagents are from Gibco BRL. The seeded plates are incubated overnight at 37° C. in 5% CO2.
(§4) Human orexin-A as an agonist is prepared as 1 mM stock solution in MeOH: water (1:1), diluted in HBSS containing 0.1% bovine serum albumin (BSA) and 2 mM HEPES for use in the assay at a final concentration of 10 nM.
(§5) Antagonists are prepared as 10 mM stock solution in DMSO, then diluted in 96-well plates, first in DMSO, then in HBSS containing 0.1% bovine serum albumin (BSA) and 2 mM HEPES.
(§6) On the day of the assay, 100 μl of loading medium (HBSS containing 1% FCS, 2 mM HEPES, 5 mM probenecid (Sigma) and 3 μM of the fluorescent calcium indicator fluo-3 AM (1 mM stock solution in DMSO with 10% pluronic acid) (Molecular Probes) is added to each well.
(§7) The 96-well plates are incubated for 60 min at 37° C. in 5% CO2. The loading solution is then aspirated and cells are washed 3 times with 200 μl HBSS containing 2.5 mM probenecid, 0.1% BSA, 2 mM HEPES. 100 μl of that same buffer is left in each well.
(§8) Within the Fluorescent Imaging Plate Reader (FLIPR, Molecular Devices), antagonists are added to the plate in a volume of 50 μl, incubated for 20 min and finally 100 μl of agonist is added. Fluorescence is measured for each well at 1 second intervals, and the height of each fluorescence peak is compared to the height of the fluorescence peak induced by 10 nM orexin-A with buffer in place of antagonist.
A general note: Calcium assays in cells follow changes in intracellular calcium, usually with a dye or a luminescent sensor.

Experiment [2] addresses T2, human orexin-1 receptor (Homo sapiens, UniProt O43613).
T2 construct: expressed in transfected cells; host or cells: CHO (Chinese hamster ovary) cells, grown under G418 selection
T2 sequence (O43613 1-425): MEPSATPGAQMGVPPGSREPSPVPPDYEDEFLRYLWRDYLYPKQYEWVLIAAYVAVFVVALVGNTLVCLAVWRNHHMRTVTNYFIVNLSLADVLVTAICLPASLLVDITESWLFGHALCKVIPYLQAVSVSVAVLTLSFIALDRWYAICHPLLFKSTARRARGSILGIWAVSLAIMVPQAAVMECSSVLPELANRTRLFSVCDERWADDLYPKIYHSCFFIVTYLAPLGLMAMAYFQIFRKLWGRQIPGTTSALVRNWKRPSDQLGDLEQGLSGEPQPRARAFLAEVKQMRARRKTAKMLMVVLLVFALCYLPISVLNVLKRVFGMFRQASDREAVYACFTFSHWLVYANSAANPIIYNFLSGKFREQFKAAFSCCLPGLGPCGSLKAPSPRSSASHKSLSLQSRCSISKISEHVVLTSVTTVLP
The experiment can be described thus: Intracellular calcium measurements (FLIPR), orexin receptor antagonistic activity, OX1. In kind it is cell-based. To be noted: CHO cells expressing human orexin-1 receptor, 10 nM orexin-A as agonist. The procedure:
as §1, §2, §3, §4, §5, §6, §7, §8

For the molecule `Cc1cccc(-c2sc(C)nc2C(=O)N2C[C@H]3C[C@H]3[C@H]2CNC(=O)c2cccc(C(F)(F)F)c2)c1` (relative stereo) [Example 125, N-[(1R*,2S*,5S*)-3-(2-Methyl-5-m-tolyl-thiazole-4-carbonyl)-3-aza-bicyclo[3.1.0]hex-2-ylmethyl]-3-trifluoromethyl-benzamide], the IC50 in experiment [1] stood at 102 nM; in experiment [2] it was 98 nM.

In the case of `Cc1cccc(-c2sc(C)nc2C(=O)N2C[C@H]3C[C@H]3[C@H]2CNC(=O)c2ccc(F)cc2Cl)c1` (relative stereo) [Example 141, 2-Chloro-4-fluoro-N-[(1R*,2S*,5S*)-3-(2-methyl-5-m-tolyl-thiazole-4-carbonyl)-3-aza-bicyclo[3.1.0]hex-2-ylmethyl]-benzamide], the IC50 came to 14 nM in experiment [1] and 76 nM in experiment [2].

With `Cc1cccc(-c2sc(C)nc2C(=O)N2C[C@H]3C[C@H]3[C@H]2CNC(=O)c2cccc(C)c2Cl)c1` (relative stereo) [Example 143, 2-Chloro-3-methyl-N-[(1R*,2S*,5S*)-3-(2-methyl-5-m-tolyl-thiazole-4-carbonyl)-3-aza-bicyclo[3.1.0]hex-2-ylmethyl]-benzamide], the IC50 in experiment [1] was found to be 17 nM; in experiment [2] it was 507 nM.

On to `Cc1cccc(-c2sc(C)nc2C(=O)N2C[C@H]3C[C@H]3[C@H]2CNC(=O)c2ccc(C)c(C(F)(F)F)c2)c1` (relative stereo) [Example 146, 4-Methyl-N-[(1R*,2S*,5S*)-3-(2-methyl-5-m-tolyl-thiazole-4-carbonyl)-3-aza-bicyclo[3.1.0]hex-2-ylmethyl]-3-trifluoromethyl-benzamide], for which the IC50 in experiment [1] is 55 nM; in experiment [2], 54 nM.

For `Cc1cccc(-c2sc(C)nc2C(=O)N2C[C@H]3C[C@H]3[C@H]2CNC(=O)c2ccccc2N2CCOCC2)c1` (relative stereo) [Example 154, N-[(1R*,2S*,5S*)-3-(2-Methyl-5-m-tolyl-thiazole-4-carbonyl)-3-aza-bicyclo[3.1.0]hex-2-ylmethyl]-2-morpholin-4-yl-benzamide], the IC50 in experiment [1] turned out to be 237 nM; in experiment [2], 201 nM.

With `Cc1cccc(-c2sc(C)nc2C(=O)N2C[C@H]3C[C@H]3[C@H]2CNC(=O)c2cccc3c2C=CCO3)c1` (relative stereo) [Example 178, 2H-Chromene-5-carboxylic acid [(1R*,2S*,5S*)-3-(2-methyl-5-m-tolyl-thiazole-4-carbonyl)-3-aza-bicyclo[3.1.0]hex-2-ylmethyl]-amide], the half-maximal inhibitory concentration (IC50) was determined as 33 nM in experiment [1] and 43 nM in experiment [2].

As for `Cc1cccc(-c2sc(C)nc2C(=O)N2C[C@H]3C[C@H]3[C@H]2CNC(=O)c2cccc3c2OCCN3C)c1` (relative stereo) [Example 179, 4-Methyl-3,4-dihydro-2H-benzo[1,4]oxazine-8-carboxylic acid [(1R*,2S*,5S*)-3-(2-methyl-5-m-tolyl-thiazole-4-carbonyl)-3-aza-bicyclo[3.1.0]hex-2-ylmethyl]-amide], the IC50 in experiment [1] was determined as 76 nM; in experiment [2] it was 237 nM.

For the molecule `Cc1cccc(-c2sc(C)nc2C(=O)N2C[C@H]3C[C@H]3[C@H]2CNC(=O)c2cccc3c2NC(=O)CO3)c1` (relative stereo) [Example 181, 3-Oxo-3,4-dihydro-2H-benzo[1,4]oxazine-5-carboxylic acid [(1R*,2S*,5S*)-3-(2-methyl-5-m-tolyl-thiazole-4-carbonyl)-3-aza-bicyclo[3.1.0]hex-2-ylmethyl]-amide], the figures for the IC50 in experiment [1] and in experiment [2] were 154 nM and 90 nM, respectively.

Consider `Cc1cccc(-c2sc(C)nc2C(=O)N2C[C@H]3C[C@H]3[C@H]2CNC(=O)c2cccc3c2CCCO3)c1` (relative stereo) [Example 182, Chroman-5-carboxylic acid [(1R*,2S*,5S*)-3-(2-methyl-5-m-tolyl-thiazole-4-carbonyl)-3-aza-bicyclo[3.1.0]hex-2-ylmethyl]-amide], for which the IC50 in experiment [1] is 196 nM; in experiment [2], 241 nM.

As to `Cc1nc(C(=O)N2C[C@H]3C[C@H]3[C@H]2CNC(=O)c2cnc3ccccn23)c(-c2cccc(Cl)c2)s1` (relative stereo) [Example 203, Imidazo[1,2-a]pyridine-3-carboxylic acid {(1R*,2S*,5S*)-3-[5-(3-chloro-phenyl)-2-methyl-thiazole-4-carbonyl]-3-aza-bicyclo[3.1.0]hex-2-ylmethyl}-amide], the IC50 in experiment [1] is 92 nM; in experiment [2], 42 nM.

On to `Cc1nc(C(=O)N2C[C@H]3C[C@H]3[C@H]2CNC(=O)c2cnc3sccn23)c(-c2cccc(F)c2)s1` (relative stereo) [Example 214, Imidazo[2,1-b]thiazole-5-carboxylic acid {(1R*,2S*,5S*)-3-[5-(3-fluoro-phenyl)-2-methyl-thiazole-4-carbonyl]-3-aza-bicyclo[3.1.0]hex-2-ylmethyl}-amide], for which the IC50 came to 17 nM in experiment [1] and 37 nM in experiment [2].

In the case of `Cc1nc(C(=O)N2C[C@H]3C[C@H]3[C@H]2CNC(=O)c2cccc3c2OCO3)c(-c2cccc(F)c2)s1` (relative stereo) [Example 242, Benzo[1,3]dioxole-4-carboxylic acid {(1R*,2S*,5S*)-3-[5-(3-fluoro-phenyl)-2-methyl-thiazole-4-carbonyl]-3-aza-bicyclo[3.1.0]hex-2-ylmethyl}-amide], the results for the IC50 in experiment [1] and in experiment [2] were 59 nM and 963 nM, respectively.

In the case of `Cc1nc(C(=O)N2C[C@H]3C[C@H]3[C@H]2CNC(=O)c2cccc3c2OCCO3)c(-c2cccc(F)c2)s1` (relative stereo) [Example 256, 2,3-Dihydro-benzo[1,4]dioxine-5-carboxylic acid {(1R*,2S*,5S*)-3-[5-(3-fluoro-phenyl)-2-methyl-thiazole-4-carbonyl]-3-aza-bicyclo[3.1.0]hex-2-ylmethyl}-amide], the IC50 stood at 14 nM in experiment [1] and 111 nM in experiment [2].

As for `Cc1cccc(-c2sc(N)nc2C(=O)N2C[C@H]3C[C@H]3[C@H]2CNC(=O)c2sc3nccn3c2C)c1` (relative stereo) [Example 274, 3-Methyl-imidazo[2,1-b]thiazole-2-carboxylic acid [(1R*,2S*,5S*)-3-(2-amino-5-m-tolyl-thiazole-4-carbonyl)-3-aza-bicyclo[3.1.0]hex-2-ylmethyl]-amide], the IC50 in experiment [1] stood at 87 nM; in experiment [2], 31 nM.

Turning to `Cc1cccc(-c2sc(N)nc2C(=O)N2C[C@H]3C[C@H]3[C@H]2CNC(=O)c2scc3c2OCCO3)c1` (relative stereo) [Example 284, 2,3-Dihydro-thieno[3,4-b][1,4]dioxine-5-carboxylic acid [(1R*,2S*,5S*)-3-(2-amino-5-m-tolyl-thiazole-4-carbonyl)-3-aza-bicyclo[3.1.0]hex-2-ylmethyl]-amide], the IC50 was 15 nM in experiment [1] and 33 nM in experiment [2].

As to `COCCOc1cccc(-c2sc(C)nc2C(=O)N2C[C@H]3C[C@H]3[C@H]2CNC(=O)c2cccc3occc23)c1` (relative stereo) [Example 333, Benzofuran-4-carboxylic acid ((1R*,2S*,5S*)-3-{5-[3-(2-methoxy-ethoxy)-phenyl]-2-methyl-thiazole-4-carbonyl}-3-aza-bicyclo[3.1.0]hex-2-ylmethyl)-amide], the figures for the IC50 in experiment [1] and in experiment [2] were 172 nM and 954 nM, respectively.

A word on the IC50: it is the midpoint of a concentration-inhibition curve.

For the origin of these results see patent publication US20100016401A1, “3-AZA-BICYCLO[3.1.0]HEXANE DERIVATIVES” (Actelion Phamaceuticals Ltd., priority 2006, published 2010).
